# From article PMC9481570, “A small molecule antagonist of SMN disrupts the interaction between SMN and RNAP II” (Nature Communications, 2022)
# Biological target: T1, tandem Tudor domain (TTD) of UHRF1 (Homo sapiens, UniProt Q96T88)
# T1 construct: UHRF1 (aa 126–285); His (N, cleaved yes); made in house; host or cells: E. coli BL21 (DE3) Codon plus RIL
# Test: Fluorescein polarization-based peptide displacement screen
# Assay type: binding
# Conditions: 2 mM compound, 8 μM UHRF1 TTD, 40 nM FITC-H3K9me3 peptide; hit = signal less than 50% of negative control
# Protocol: A small molecule fragment library with 2040 compounds was screened against TTD of UHRF1 by fluorescein polarization-based peptide displacement assay according to previous reports. Briefly, the screening was performed in 10 μL at a protein concentration of 8 μM premixed with a 40 nM FITC-labeled H3K9me3 peptide (aa 1–25, Tufts University Core Services), and then adding a single concentration of 2 mM compound in a buffer of 20 mM Tris-HCl, pH 8.8, 50 mM NaCl, and 0.01% Triton X-100. The hits were further confirmed by dose response analysis with 1 mM as the highest concentration with 11 sequential 2-fold dilutions. All the assays were performed in duplicate in 384-well plates (Greiner, 784290), using the Synergy 4 microplate reader (BioTek), with an excitation wavelength of 485 nm and an emission wavelength of 528 nm. Data were corrected by background of the free labeled peptides and analyzed by GraphPad Prism version 5 software. […]
# Tris -HCl, pH 8.8, 50 mM NaC l, and 0.01% Triton X - 100. […] All the assays were performed in duplicate in 384 -well plates (Greiner, 784290), usi ng the Synergy 4 microplate reader (BioTek), with an excitation wavelength of 485 nm and an emission wavelength of 528 nm. Data were corrected by background of the free labeled peptides and analyzed by GraphPad […]
# Detection instrument and software Synergy 4 microplate reader (BioTek), GraphPad […]
# T1 sequence (Q96T88 126-285): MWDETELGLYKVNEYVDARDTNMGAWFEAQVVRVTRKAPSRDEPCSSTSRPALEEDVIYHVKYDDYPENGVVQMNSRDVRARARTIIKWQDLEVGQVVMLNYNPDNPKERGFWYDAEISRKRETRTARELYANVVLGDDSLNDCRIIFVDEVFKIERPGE
compound,measurement,value
"Cn1c2c(c(=N)c3c1CCC3)CCC2 [Compound 1, 4-methyl-2,3,4,5,6,7-hexahydrodicyclopenta[b,e]pyridin-8(1H)-imine]",outcome of fragment screen,hit
